Numbers after ± are expanded uncertainties.
Conditions: Liquid, Vibrating tube method

CCC(=O)c1ccccc1 [ethyl phenyl ketone]
mass density [kg/m3]
Conditions | 298.15 K | 308.15 K | 318.15 K | 328.15 K
100 kPa | 1005.3 ± 0.56 | 996.8 ± 0.56 | 988.3 ± 0.56 | 979.6 ± 0.56
2130 kPa | 1006.4 ± 0.56 | 998 ± 0.56 | 989.6 ± 0.55 | 981.1 ± 0.55
4150 kPa | 1007.5 ± 0.56 | 999.2 ± 0.56 | 990.9 ± 0.55 | 982.4 ± 0.55
6180 kPa | 1008.7 ± 0.56 | 1000.4 ± 0.56 | 992.1 ± 0.55 | 983.7 ± 0.55
8210 kPa | 1009.8 ± 0.56 | 1001.6 ± 0.56 | 993.3 ± 0.56 | 985 ± 0.55
10230 kPa | 1010.9 ± 0.56 | 1002.8 ± 0.56 | 994.6 ± 0.56 | 986.2 ± 0.55
11250 kPa | 1011.5 ± 0.56 | 1003.4 ± 0.56 | 995.2 ± 0.55 | 986.9 ± 0.55
12260 kPa | 1012.1 ± 0.56 | 1003.9 ± 0.56 | 995.8 ± 0.56 | 987.5 ± 0.55
14290 kPa | 1013.2 ± 0.56 | 1005.1 ± 0.56 | 997 ± 0.55 | 988.7 ± 0.55
16310 kPa | 1014.3 ± 0.56 | 1006.2 ± 0.56 | 998.1 ± 0.56 | 990 ± 0.55
18340 kPa | 1015.3 ± 0.56 | 1007.3 ± 0.56 | 999.3 ± 0.56 | 991.2 ± 0.55
20370 kPa | 1016.4 ± 0.56 | 1008.4 ± 0.56 | 1000.4 ± 0.56 | 992.3 ± 0.55
22390 kPa | 1017.5 ± 0.56 | 1009.5 ± 0.56 | 1001.6 ± 0.56 | 993.5 ± 0.55
24420 kPa | 1018.5 ± 0.56 | 1010.6 ± 0.56 | 1002.7 ± 0.56 | 994.7 ± 0.55
26450 kPa | 1019.5 ± 0.56 | 1011.7 ± 0.56 | 1003.8 ± 0.56 | 995.9 ± 0.56
28470 kPa | 1020.5 ± 0.56 | 1012.8 ± 0.56 | 1004.9 ± 0.56 | 997.1 ± 0.55
29490 kPa | 1021 ± 0.57 | 1013.2 ± 0.56 | 1005.5 ± 0.56 | 997.6 ± 0.55
30500 kPa | 1021.6 ± 0.57 | 1013.8 ± 0.56 | 1006 ± 0.56 | 998.2 ± 0.55
32530 kPa | 1022.5 ± 0.57 | 1014.8 ± 0.56 | 1007.1 ± 0.56 | 999.3 ± 0.55
34550 kPa | 1023.5 ± 0.57 | 1015.8 ± 0.56 | 1008.2 ± 0.56 | 1000.4 ± 0.56
36580 kPa | 1024.5 ± 0.57 | 1016.8 ± 0.56 | 1009.2 ± 0.56 | 1001.5 ± 0.56
38600 kPa | 1025.5 ± 0.57 | 1017.9 ± 0.56 | 1010.3 ± 0.56 | 1002.6 ± 0.56
39620 kPa | 1025.9 ± 0.57 | 1018.3 ± 0.56 | 1010.8 ± 0.56 | 1003.2 ± 0.56

Cc1ccccc1 [toluene]
mass density [kg/m3]
Conditions | 298.15 K | 308.15 K | 318.15 K | 328.15 K
100 kPa | 862.1 ± 0.26 | 853 ± 0.27 | 843.8 ± 0.29 | 834.5 ± 0.3
2130 kPa | 863.6 ± 0.27 | 854.5 ± 0.27 | 845.6 ± 0.28 | 836.5 ± 0.29
4150 kPa | 865.2 ± 0.27 | 856.2 ± 0.28 | 847.3 ± 0.29 | 838.3 ± 0.29
6180 kPa | 866.7 ± 0.27 | 857.8 ± 0.28 | 849 ± 0.29 | 840.1 ± 0.29
8210 kPa | 868.2 ± 0.27 | 859.3 ± 0.28 | 850.6 ± 0.29 | 841.8 ± 0.3
10230 kPa | 869.6 ± 0.28 | 860.9 ± 0.29 | 852.3 ± 0.29 | 843.5 ± 0.3
11250 kPa | 870.4 ± 0.28 | 861.7 ± 0.29 | 853.1 ± 0.29 | 844.4 ± 0.3
12260 kPa | 871.1 ± 0.28 | 862.4 ± 0.29 | 853.9 ± 0.29 | 845.2 ± 0.3
14290 kPa | 872.5 ± 0.28 | 863.9 ± 0.29 | 855.4 ± 0.3 | 846.9 ± 0.31
16310 kPa | 873.9 ± 0.29 | 865.4 ± 0.29 | 857 ± 0.3 | 848.6 ± 0.31
18340 kPa | 875.3 ± 0.29 | 866.8 ± 0.3 | 858.5 ± 0.3 | 850.1 ± 0.31
20370 kPa | 876.7 ± 0.29 | 868.2 ± 0.3 | 860 ± 0.31 | 851.7 ± 0.32
22390 kPa | 878 ± 0.29 | 869.6 ± 0.3 | 861.5 ± 0.31 | 853.3 ± 0.32
24420 kPa | 879.3 ± 0.3 | 871 ± 0.31 | 862.9 ± 0.32 | 854.8 ± 0.33
26450 kPa | 880.6 ± 0.3 | 872.4 ± 0.31 | 864.4 ± 0.32 | 856.3 ± 0.33
28470 kPa | 881.9 ± 0.31 | 873.8 ± 0.32 | 865.8 ± 0.33 | 857.8 ± 0.34
29490 kPa | 882.5 ± 0.31 | 874.4 ± 0.31 | 866.5 ± 0.33 | 858.5 ± 0.34
30500 kPa | 883.2 ± 0.31 | 875 ± 0.32 | 867.2 ± 0.33 | 859.3 ± 0.34
32530 kPa | 884.4 ± 0.31 | 876.3 ± 0.32 | 868.5 ± 0.33 | 860.7 ± 0.34
34550 kPa | 885.6 ± 0.32 | 877.6 ± 0.33 | 869.9 ± 0.34 | 862.1 ± 0.35
36580 kPa | 886.8 ± 0.32 | 878.9 ± 0.33 | 871.2 ± 0.34 | 863.5 ± 0.35
38600 kPa | 888 ± 0.32 | 880.1 ± 0.33 | 872.5 ± 0.35 | 864.9 ± 0.36
39620 kPa | 888.6 ± 0.33 | 880.7 ± 0.35 | 873.2 ± 0.35 | 865.5 ± 0.35

Source: the NIST ThermoML archive (doi:10.1016/j.jct.2004.10.011)
